US9249131B2, “Modulators of ATP-binding cassette transporters” (Vertex Pharmaceuticals Incorporated, priority 2003, dated 2016)

Target: T1, ΔF508-CFTR (Homo sapiens, UniProt P13569, DEL508-508)
T1 construct: expressed in transfected cells; host or cells: NIH3T3 mouse fibroblasts stably expressing ΔF508-CFTR for the optical, whole-cell and single-channel assays; Fisher rat epithelial (FRT) cells for Ussing chamber follow-up
Test: Assays for ΔF508-CFTR correction and potentiator properties (membrane potential optical and electrophysiological methods)
Assay type: cell-based
Settings: CFTR modulation, % Efficacy
Outline: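 NIH3T3 mouse fibroblasts stably expressing ΔF508-CFTR were used, with membrane potential read by DiSBAC2(3)/CC2-DMPE FRET on VIPR. Correctors: 16 h compound exposure at 37 °C, then activation with forskolin plus genistein in Cl⁻-free medium. Potentiators: cells held 24 h at 27 °C, compound added in Cl⁻-free medium, 2-10 μM forskolin 22 s later (final Cl⁻ 28 mM).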

T1 sequence (P13569 with tags, fused parts or gaps DEL508-508): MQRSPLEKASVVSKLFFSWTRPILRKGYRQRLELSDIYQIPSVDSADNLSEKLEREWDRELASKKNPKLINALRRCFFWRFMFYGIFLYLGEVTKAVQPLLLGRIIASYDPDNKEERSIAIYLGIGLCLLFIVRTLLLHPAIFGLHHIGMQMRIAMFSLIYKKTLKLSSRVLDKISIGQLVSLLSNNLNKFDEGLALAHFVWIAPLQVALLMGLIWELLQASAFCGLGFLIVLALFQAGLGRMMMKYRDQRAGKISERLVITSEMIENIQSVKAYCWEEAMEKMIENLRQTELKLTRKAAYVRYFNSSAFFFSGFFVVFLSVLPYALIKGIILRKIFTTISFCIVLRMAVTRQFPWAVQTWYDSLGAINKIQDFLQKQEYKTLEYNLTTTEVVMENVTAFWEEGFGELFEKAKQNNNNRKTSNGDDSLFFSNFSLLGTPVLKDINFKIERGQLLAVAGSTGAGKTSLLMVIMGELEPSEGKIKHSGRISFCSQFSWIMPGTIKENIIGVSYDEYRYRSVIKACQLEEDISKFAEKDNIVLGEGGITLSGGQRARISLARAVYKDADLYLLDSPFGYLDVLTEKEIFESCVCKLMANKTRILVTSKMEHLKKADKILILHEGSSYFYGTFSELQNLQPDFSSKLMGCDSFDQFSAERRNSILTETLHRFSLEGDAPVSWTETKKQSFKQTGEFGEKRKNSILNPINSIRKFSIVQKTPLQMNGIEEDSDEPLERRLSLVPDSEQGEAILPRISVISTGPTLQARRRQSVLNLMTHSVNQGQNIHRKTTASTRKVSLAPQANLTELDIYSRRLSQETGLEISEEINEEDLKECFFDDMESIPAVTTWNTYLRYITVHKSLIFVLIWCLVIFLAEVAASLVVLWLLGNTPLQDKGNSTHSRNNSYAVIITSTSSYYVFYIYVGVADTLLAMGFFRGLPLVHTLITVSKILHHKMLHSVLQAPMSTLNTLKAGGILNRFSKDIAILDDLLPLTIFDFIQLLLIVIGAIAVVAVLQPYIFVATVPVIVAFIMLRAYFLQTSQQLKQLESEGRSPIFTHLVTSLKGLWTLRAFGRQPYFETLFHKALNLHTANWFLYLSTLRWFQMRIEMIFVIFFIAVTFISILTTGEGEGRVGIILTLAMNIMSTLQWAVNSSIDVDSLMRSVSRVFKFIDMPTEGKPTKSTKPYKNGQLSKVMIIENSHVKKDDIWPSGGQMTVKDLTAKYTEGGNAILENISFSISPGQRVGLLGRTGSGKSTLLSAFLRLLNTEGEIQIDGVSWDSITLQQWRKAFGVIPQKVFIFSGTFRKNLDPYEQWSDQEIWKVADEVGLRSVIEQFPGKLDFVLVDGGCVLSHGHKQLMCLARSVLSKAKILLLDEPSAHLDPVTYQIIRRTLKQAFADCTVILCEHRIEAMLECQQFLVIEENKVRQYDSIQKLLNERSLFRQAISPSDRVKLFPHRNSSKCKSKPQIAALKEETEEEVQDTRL

Structure (SMILES)	% Activity
CC(C)C(C(=O)Nc1ncc(Cc2ccc(Cl)cc2)s1)c1ccccc1 (stereo not drawn) [compound 123]	+++ (“+++” means >100%)
O=C(Nc1ncc(Cc2cccc(Cl)c2)s1)C1Cc2ccccc21 (stereo not drawn) [compound 126]	++ (“++” means between 25% to 100%)
CCC(C(=O)Nc1ncc(Cc2cccc(Cl)c2)s1)c1ccccc1 (stereo not drawn) [compound 128]	+++ (“+++” means >100%)
CCC(C)C(C(=O)Nc1ncc(Cc2cccc(Cl)c2)s1)c1ccccc1 (stereo not drawn) [compound 129]	++ (“++” means between 25% to 100%)
CC(C)C(C(=O)Nc1ncc(Cc2cccc(Cl)c2)s1)c1ccccc1 (stereo not drawn) [compound 130]	+++ (“+++” means >100%)
O=C(Nc1ncc(Cc2cccc(Cl)c2)s1)C1c2ccccc2Oc2ccccc21 [compound 131]	+++ (“+++” means >100%)
COc1ccccc1Cc1cnc(NC(=O)C2c3ccccc3-c3ccccc32)s1 [compound 133]	++ (“++” means between 25% to 100%)
COc1ccccc1Cc1cnc(NC(=O)C(C)c2ccccc2)s1 (stereo not drawn) [compound 135]	++ (“++” means between 25% to 100%)
COc1ccccc1Cc1cnc(NC(=O)C(c2ccccc2)C(C)C)s1 (stereo not drawn) [compound 138]	++ (“++” means between 25% to 100%)
O=C(Nc1ncc(Cc2ccccc2)o1)c1ccccc1 [compound 141]	++ (“++” means between 25% to 100%)

Further lines, results first:

% Activity	Structure (SMILES)
++ (“++” means between 25% to 100%)	CCC(C(=O)Nc1ncc(Cc2ccc(Cl)cc2)s1)c1ccccc1 (stereo not drawn) [compound 120]
+++ (“+++” means >100%)	CCC(C)C(C(=O)Nc1ncc(Cc2ccc(Cl)cc2)s1)c1ccccc1 (stereo not drawn) [compound 121]
+++ (“+++” means >100%)	O=C(Nc1ncc(Cc2ccc(Cl)cc2)s1)C(c1ccccc1)C1CCCC1 (stereo not drawn) [compound 122]
++ (“++” means between 25% to 100%)	O=C(Nc1ncc(Cc2cccc(Cl)c2)s1)C(c1ccccc1)c1ccccc1 [compound 124]
++ (“++” means between 25% to 100%)	O=C(Nc1ncc(Cc2cccc(Cl)c2)s1)C(c1ccc(Cl)cc1)c1ccc(Cl)cc1 [compound 125]
++ (“++” means between 25% to 100%)	CC(C(=O)Nc1ncc(Cc2cccc(Cl)c2)s1)c1ccccc1 (stereo not drawn) [compound 127]
++ (“++” means between 25% to 100%)	COc1ccccc1Cc1cnc(NC(=O)C(c2ccccc2)C2CCCCC2)s1 (stereo not drawn) [compound 132]
++ (“++” means between 25% to 100%)	COc1ccccc1Cc1cnc(NC(=O)C(c2ccc(Cl)cc2)c2ccc(Cl)cc2)s1 [compound 134]
++ (“++” means between 25% to 100%)	CCC(C(=O)Nc1ncc(Cc2ccccc2OC)s1)c1ccccc1 (stereo not drawn) [compound 136]
++ (“++” means between 25% to 100%)	CCC(C)C(C(=O)Nc1ncc(Cc2ccccc2OC)s1)c1ccccc1 (stereo not drawn) [compound 137]
++ (“++” means between 25% to 100%)	O=C(Nc1ncc(Cc2ccccc2)s1)C(c1ccccc1)C1CCCCC1 (stereo not drawn) [compound 139]
++ (“++” means between 25% to 100%)	COc1ccccc1Cc1cnc(NC(=O)C2c3ccccc3Oc3ccccc32)s1 [compound 140]
++ (“++” means between 25% to 100%)	O=C(Nc1ncc(Cc2ccc(Cl)cc2)o1)C(c1ccccc1)C1CCCCC1 (stereo not drawn) [compound 142]
++ (“++” means between 25% to 100%)	O=C(Nc1ncc(Cc2ccc(Cl)cc2)o1)C(c1ccccc1)c1ccccc1 [compound 143]

Same assay, conditions: CFTR modulation, tested using the above methods

Structure (SMILES)	EC50 [µM]
CC(C)C(C(=O)Nc1ncc(Cc2ccc(Cl)cc2)s1)c1ccccc1 (stereo not drawn) [compound 123]	< 10
O=C(Nc1ncc(Cc2cccc(Cl)c2)s1)C1Cc2ccccc21 (stereo not drawn) [compound 126]	25 to 60
CCC(C(=O)Nc1ncc(Cc2cccc(Cl)c2)s1)c1ccccc1 (stereo not drawn) [compound 128]	< 10
CCC(C)C(C(=O)Nc1ncc(Cc2cccc(Cl)c2)s1)c1ccccc1 (stereo not drawn) [compound 129]	< 10
CC(C)C(C(=O)Nc1ncc(Cc2cccc(Cl)c2)s1)c1ccccc1 (stereo not drawn) [compound 130]	< 10
O=C(Nc1ncc(Cc2cccc(Cl)c2)s1)C1c2ccccc2Oc2ccccc21 [compound 131]	< 10
COc1ccccc1Cc1cnc(NC(=O)C2c3ccccc3-c3ccccc32)s1 [compound 133]	< 10
COc1ccccc1Cc1cnc(NC(=O)C(C)c2ccccc2)s1 (stereo not drawn) [compound 135]	< 10
COc1ccccc1Cc1cnc(NC(=O)C(c2ccccc2)C(C)C)s1 (stereo not drawn) [compound 138]	< 10
O=C(Nc1ncc(Cc2ccccc2)o1)c1ccccc1 [compound 141]	10 to 25

Continued, values first:

EC50 [µM]	Structure (SMILES)
< 10	CCC(C(=O)Nc1ncc(Cc2ccc(Cl)cc2)s1)c1ccccc1 (stereo not drawn) [compound 120]
< 10	CCC(C)C(C(=O)Nc1ncc(Cc2ccc(Cl)cc2)s1)c1ccccc1 (stereo not drawn) [compound 121]
< 10	O=C(Nc1ncc(Cc2ccc(Cl)cc2)s1)C(c1ccccc1)C1CCCC1 (stereo not drawn) [compound 122]
< 10	O=C(Nc1ncc(Cc2cccc(Cl)c2)s1)C(c1ccccc1)c1ccccc1 [compound 124]
< 10	O=C(Nc1ncc(Cc2cccc(Cl)c2)s1)C(c1ccc(Cl)cc1)c1ccc(Cl)cc1 [compound 125]
< 10	CC(C(=O)Nc1ncc(Cc2cccc(Cl)c2)s1)c1ccccc1 (stereo not drawn) [compound 127]
< 10	COc1ccccc1Cc1cnc(NC(=O)C(c2ccccc2)C2CCCCC2)s1 (stereo not drawn) [compound 132]
< 10	COc1ccccc1Cc1cnc(NC(=O)C(c2ccc(Cl)cc2)c2ccc(Cl)cc2)s1 [compound 134]
< 10	CCC(C(=O)Nc1ncc(Cc2ccccc2OC)s1)c1ccccc1 (stereo not drawn) [compound 136]
< 10	CCC(C)C(C(=O)Nc1ncc(Cc2ccccc2OC)s1)c1ccccc1 (stereo not drawn) [compound 137]
< 10	O=C(Nc1ncc(Cc2ccccc2)s1)C(c1ccccc1)C1CCCCC1 (stereo not drawn) [compound 139]
< 10	COc1ccccc1Cc1cnc(NC(=O)C2c3ccccc3Oc3ccccc32)s1 [compound 140]
< 10	O=C(Nc1ncc(Cc2ccc(Cl)cc2)o1)C(c1ccccc1)C1CCCCC1 (stereo not drawn) [compound 142]
25 to 60	O=C(Nc1ncc(Cc2ccc(Cl)cc2)o1)C(c1ccccc1)c1ccccc1 [compound 143]
